# Measured values: patent publication US7169568B2, “Method for screening molecules that exert a neurotrophic effect through activation of neurotrophin receptors” (New York University, priority 2000, dated 2007)
# Assays:
# [1] = test system: NGF-differentiated PC12 cells; experiment: Cell death assay (LDH release), NGF-differentiated PC12 cells after NGF and serum withdrawal; format: cell-based
# Method: (§1) FIGS. 6A and 6B show graphs on the trophic effects of adenosine in PC12 and hippocampal cells deprived of neurotrophins. In FIG. 6A, NGF-differentiated PC12 cells were prepared and then NGF and serum were withdrawn for 48 hours as described in the Materials and Methods section of Example 1. Upon NGF withdrawal, various concentrations of CGS 21680 (CGS) were added to the media. CON =No Addition. […] In FIG. 6B, hippocampal neurons were prepared and B27 was withdrawn for 48 hrs as described in the Materials and Methods section of Example 1. Upon B27 withdrawal, various concentrations of CGS 21680 (CGS) were added to the media. […] All LDH levels were quantitated and % cell death calculated as described in the Materials and Methods section of Example 1. All bars depict mean+SEM from three independent experiments.
# Cell Death Assay. PC12 cells were differentiated in Dulbecco's modified Eagle's medium (DMEM), supplemented with 0.33% fetal bovine serum, 0.67% heat-inactivated horse serum, 2 mM L-glutamine and NGF (50 ng/ml) for 7 days. Serum and NGF were then removed, and adenosine agonists or growth factors added to the media. After 48 hrs, cell death was quantified by measuring lactate dehydrogenase (LDH) released from injured cells into the media using the Cytox 96 Cytotoxicity Assay Kit (Promega, Madison, Wis.). LDH values were normalized by subtracting the LDH released by cells maintained in NGF (50 ng/ml) and scaling to a full kill (=100%) reference induced by 5 min treatment with 1% Triton, an exposure that consistently killed all PC12 cells.
# Akt = Akt activation in PC12 cells (anti-phospho Akt immunoblot); format: cell-based
# Method: (§2) PC12 cells (615) were treated with adenosine (10 μM) for various times in the presence or absence of […] (100 nM) or LY294002 (10 μM). The cells were subsequently harvested in lysis buffer; lysates and immunoprecipitated samples were subsequently immunoblotted with anti-phospho MAP kinase, anti-phospho Akt, and anti-phosphotyrosine. Reprobing with anti-MAP kinase and anti-pan-Trk antibodies was carried out to ensure equal protein loading. To assess the activity of Akt, endogenous Akt can be immunoprecipitated from lysates with anti-Akt and the proteins assayed in Western blots with anti-phospho-Akt antibodies. Use of the anti-Akt antibody versus the anti-phospho-Akt antibody on lysates can give a comparative assessment of the relative level of the enzyme and extent of activation (Kim et al., 2001). […] and Immunoblotting. PC12 cells or PC12-615 cells (Hempstead et al, 1992), were maintained in Dulbecco's Modified Eagle's Medium (DMEM) containing 10% fetal bovine serum (FBS) supplemented with 100 units/ml penicillin, 100 μg/ml streptomycin, and 2 mM glutamine plus 200 μg/ml G418. Cells were placed in low serum medium (1% FBS, 0.5% horse serum) overnight prior to experiments. Cell lysates from PC12, 615 cells, or hippocampal cells were incubated in lysis buffer (1% NP40) for 4 hours to overnight at 4° C. with anti-pan-Trk polyclonal antibody, followed by incubation with protein A-Sepharose beads. Equivalent amounts of protein were analyzed for each condition. The beads' were washed five times with lysis buffer and the immune complexes were boiled in SDS-sample buffer and loaded on sodium dodecyl sulfate-polyacrylamide electrophoresis (SDS-PAGE) gels for immunoblot analysis. The immunoreactive protein bands were detected by ECL reagents based upon enhanced chemiluminescence procedure (Amersham Pharmacia).
# hippocampal neurons = experiment: Cell death assay (LDH release), hippocampal neurons after B27 withdrawal; format: cell-based, rat; settings: 100 nM, with CGS 21680 (10 nM) upon B27 withdrawal
# Method: as §1, with “.” for “FIGS. 6A and 6B show graphs on the trophic effects of adenosine in PC12 and hippocampal cells deprived of neurotrophins.”
# (§3) Hippocampal Cell Cultures. Dissociated primary cultures of hippocampal neurons from embryonic day 17 (E17) rats were prepared from timed-pregnant Sprague-Dawley rats as described previously (Aibel et al, 1998). Fetuses were removed under sterile conditions and kept in PBS on ice for microscopic dissection of the hippocampus. The meninges were removed and the tissue was placed in Neurobasal media (Gibco BRL). The tissue was briefly minced with fine forceps and then triturated with a fire polished pasteur pipet. Cells were counted and then plated on culture wells coated with 0.01 mg/ml poly-D-lysine overnight. Hippocampal cells were maintained in Neurobasal media, containing B27 supplement and L-glutamine (0.5 mM). Experiments were conducted 7–10 days after plating.
# Hippocampal neurons were maintained in Neurobasal media containing B27 supplement and 0.5 mM L-glutamine for 10 days. B27 was then removed, and adenosine agonists or BDNF (100 ng/ml) was added to the media. MK-801 (1 μM) was added to all conditions, to decrease the contribution of NMDA-mediated cell death. After 48 hrs, cell death was assessed by measurement of LDH released into media.
# MAP kinase = MAP kinase activation in PC12 cells (anti-phospho MAP kinase immunoblot); format: cell-based; settings: K252a at concentrations that block TrkA signaling (100 nM)
# Method: as §2, with “loading.” for “loading. To assess the activity of Akt, endogenous Akt can be immunoprecipitated from lysates with anti-Akt and the proteins assayed in Western blots with anti-phospho-Akt antibodies. Use of the anti-Akt antibody versus the anti-phospho-Akt antibody on lysates can give a comparative assessment of the relative level of the enzyme and extent of activation (Kim et al., 2001).”, “The beads' were washed five times with lysis buffer and the immune complexes were boiled in SDS-sample buffer and loaded on sodium dodecyl sulfate-polyacrylamide electrophoresis (SDS-PAGE) gels for immunoblot analysis.” left out
# TrkA receptors = experiment: TrkA receptor tyrosine phosphorylation in PC12 (615) cells (anti-pan-Trk immunoprecipitation, PY99 anti-phosphotyrosine immunoblot); format: cell-based
# Method: Stably transfected PC12 cells expressing high levels of TrkA (615) were treated with the indicated compounds for 2 hours. The cells were subsequently harvested in lysis buffer as described in the Materials and Methods of Example 1. Lysates were immunoprecipitated with anti-pan Trk rabbit antiserum. Immunocomplexes were analyzed by immunoblotting with anti-phosphotyrosine antibody (PY99).
# In FIG. 2A, different concentrations of adenosine were administered to PC12615 cells for 2 hours or NGF (1 ng/ ml) for 10 min. Cells were also treated with CGS21680 at the indicated dose for 2 hours. In FIG. 2B, PC12 cells (615) were treated with adenosine (10 μM) for various times or with 5 ng/ml NGF for 10 min. Phosphorylated TrkA receptors were detected by immunoblot analysis using PY99 anti-phosphotyrosine antibodies. The amount of Trk receptors in each condition was verified by immunoblotting.
# In FIG. 3A, PC12 cells (615) were treated with the A2A agonist CGS 21680 (10 nM) and an A1 agonist CPA (10 nM) for 2 hr. ZM 241385 (10 nM), an A2A antagonist, was incubated with the cells for 15 min prior to treatment with adenosine (10 μM) for 2 hours. In FIG. 3B, PC12 cells (615) were incubated with the indicated concentrations of PP1, a Src family kinase inhibitor (Hanke et al, 1996), for 30 min, and then treated with adenosine (10 μM) for 2 hours. Activation of TrkA was assessed by immunoprecipitation and immunoblot analysis using PY99 anti-phosphotyrosine antibody.
# In FIG. 7A, different concentrations of PACAP27 were administered to PC12 (615) cells for 2 hours or NGF (5 ng/ml) for 10 min. […] Phosphorylated TrkA receptors were detected by immunoblot analysis using PY99 anti-phosphotyrosine antibodies. The level of Trk receptors for each condition was verified by immunoblotting with anti-Trk antibodies.
# (§4) Immunoprotection and Immunoblotting. PC12 cells or PC12-615 cells (Hempstead et al, 1992), were maintained in Dulbecco's Modified Eagle's Medium (DMEM) containing 10% fetal bovine serum (FBS) supplemented with 100 units/ml penicillin, 100 μg/ml streptomycin, and 2 mM glutamine plus 200 μg/ml G418. Cells were placed in low serum medium (1% FBS, 0.5% horse serum) overnight prior to experiments. Cell lysates from PC12, 615 cells, or hippocampal cells were incubated in lysis buffer (1% NP40) for 4 hours to overnight at 4° C. with anti-pan-Trk polyclonal antibody, followed by incubation with protein A-Sepharose beads. Equivalent amounts of protein were analyzed for each condition. The beads' were washed five times with lysis buffer and the immune complexes were boiled in SDS-sample buffer and loaded on sodium dodecyl sulfate-polyacrylamide electrophoresis (SDS-PAGE) gels for immunoblot analysis. The immunoreactive protein bands were detected by ECL reagents based upon enhanced chemiluminescence procedure (Amersham Pharmacia).
# Immunoprecipitated and Immunoblotting. PC12 (615) cells were maintained in DMEM containing 10% FBS supplemented with 100 units/ml penicillin, 100 μg/ml streptomycin, and 2 mM glutamine plus 200 μg/ml G418. Cells were placed in serum free medium overnight before experiments. Cell lysates from PC12(615) cells, or basal forebrain cells were incubated in lysis buffer (1% Nonidet P-40) for 4 hrs to overnight at 4° C. with anti-pan-Trk polyclonal antibody followed by incubation with protein A-Sepharose beads. Equivalent amounts of protein were analyzed for each condition.
# TrkB receptors = experiment: Trk receptor phosphorylation in primary E17 hippocampal neurons (immunoprecipitation, anti-phosphotyrosine Western blot); format: cell-based, rat; settings: 10 nM, two hours
# Method: FIGS. 4A and 4B show Western blots on adenosine activation of Trk receptors in hippocampal neurons. Primary cultures of E17 hippocampal neurons were prepared as described in the Materials and Methods of Example 1 and treated with (FIG. 4A) CGS 21680 (10 nM) or BDNF (1 ng/ml) for various times and (FIG. 4B) either adenosine (10 μM), CGS 21680 (10 nM), CPA (10 nM) or BDNF (10 ng/ml) for 2 hr. Activation of TrkA receptors was assessed by immunoprecipitation and Western blotting with anti-phosphotyrosine antibody.
# as §4
# as §3, with “The tissue was briefly minced with fine forceps and then triturated with a fire polished pasteur pipet.” left out, “Hippocampal cells were maintained in Neurobasal media, containing B27 supplement and L-glutamine (0.5 mM). Experiments were conducted 7–10 days after plating.” left out
molecule,measurement,setting,value
COC(=O)[C@@]1(O)C[C@H]2O[C@]1(C)n1c3ccccc3c3c4c(c5c6ccccc6n2c5c31)C(=O)NC4 [K252a],Effect on survival effect of CGS 21680,"[1]; 100 nM, with CGS 21680 (10 nM) upon NGF withdrawal",eliminated the positive effects of CGS 21680
same,Effect on survival effects of NGF,"[1]; 100 nM, with NGF (50 ng/ml)",reversed the survival effects of NGF
same,Effect on Akt activation by adenosine,Akt; pretreatment 100 nM,eliminated
same,Effect on survival action of CGS 21680,hippocampal neurons,K-252a sensitive
same,Effect on MAP kinase activity induced by adenosine,MAP kinase,not altered
Pituitary adenylate cyclase activating polypeptide [PACAP],Akt activity,"Akt; PC12 cells, PACAP treatment",stimulated
same,Concentration range of the effect upon TrkA receptor activity,"TrkA receptors; PC12 (615) cells, 2 hours",low nanomolar concentration range
same,Time required for increase in TrkA activation,"TrkA receptors; PC12 (615) cells, PACAP27 1 nM",2 h
COc1cccc(-c2cc(=O)c3ccccc3o2)c1N [PD98059],Effect on survival imparted by CGS 21680,"[1]; 25 μM, with CGS 21680 (10 nM)",not found to have any effect
Cc1ccc(-c2nn(C(C)(C)C)c3ncnc(N)c23)cc1 [PP1],Effect on level of tyrosine phosphorylated TrkA receptors elicited by adenosine,"TrkA receptors; 1 μM, 30 min, then adenosine (10 μM) for 2 hours",marked decrease
same,"Effect on tyrosine phosphorylated TrkA receptors elicited by adenosine, concentration dependence","TrkA receptors; increasing concentrations, then adenosine (10 μM) for 2 hours",progressively stronger inhibition
CN1CCc2cccc3c2[C@H]1Cc1ccc(O)c(O)c1-3 [apomorphine],Activation of TrkA receptors (tyrosine phosphorylation),"TrkA receptors; PC12 (615) cells, ligand for 2 hours, adenosine 10 μM",not observed
"Nc1nc(NCCc2ccc(O)cc2)nc2nc(-c3ccco3)nn12 [ZM 241385, 4-[2-[7-amino-2-(2-furyl)-1,2,4-triazolo[1,5-a](1,3,5)triazin-5-ylamino]ethyl]phenol]",Effect on adenosine-induced phosphorylation of TrkA receptors,"TrkA receptors; 10 nM, 15 min prior to adenosine (10 μM) for 2 hours",antagonized the effects of adenosine
"OC[C@H]1O[C@@H](n2cnc3c(NC4CCCC4)ncnc32)[C@H](O)[C@@H]1O [CPA, N(6)-cyclopentyladenosine]",Phosphorylation of TrkB receptors,TrkB receptors,did not activate TrkB receptors
same,Increase in phosphorylated TrkA receptors,"TrkA receptors; PC12 (615) cells, 10 nM, 2 hr",no effect
